Patent publication EP0729956B1, “Benzothiophene compounds, intermediates, compositions, and methods” (ELI LILLY AND COMPANY, priority 1995, dated 1996)
Where a name gives a salt, the structure may show the parent alone. Read-outs that look alike come from different tables or passages of the source.

What was measured:
ovariectomized rats [1] = system: ovariectomized rats; set-up: species or system Sprague Dawley rats; details: rat, in vivo; for Uterine EPO (V. max): po
Text: (§1) Seventy-five day old female Sprague Dawley rats (weight range of 200 to 225g) were obtained from Charles River Laboratories (Portage, MI). The animals were either bilaterally ovariectomized (OVX) or exposed to a Sham surgical procedure at Charles River Laboratories, and then shipped after one week. Upon arrival, they were housed in metal hanging cages in groups of 3 or 4 per cage and had ad libitum access to food (calcium content approximately 0.5%) and water for one week. Room temperature was maintained at 22.2° ± 1.7° C with a minimum relative humidity of 40%. The photoperiod in the room was 12 hours light and 12 hours dark.
(§2) After a one week acclimation period (therefore, two weeks post-OVX) daily dosing with test compound was initiated. 17a-ethynyl estradiol or the test compound were given orally, unless otherwise stated, as a suspension in 1% carboxymethylcellulose or dissolved in 20% cyclodextrin. Animals were dosed daily for 4 days. Following the dosing regimen, animals were weighed and anesthetized with a ketamine: Xylazine (2:1, V:V) mixture and a blood sample was collected by cardiac puncture. The animals were then sacrificed by asphyxiation with CO2, the uterus was removed through a midline incision, and a wet uterine weight was determined.
Uteri were kept at 4° C until time of enzymatic analysis. The uteri were then homogenized in 50 volumes of 50 mM Tris buffer (pH - 8.0) containing 0.005% Triton X-100. Upon addition of 0.01% hydrogen peroxide and 10 mM O-phenylenediamine (final concentrations) in Tris buffer, increase in absorbance was monitored for one minute at 450 nm. The presence of eosonophils in the uterus is an indication of estrogenic activity of a compound. The maximal velocity of a 15 second interval was determined over the initial, linear portion of the reaction curve.

ovariectomized rats [2] = test: Serum cholesterol analysis (OVX rat, 4-day dosing); type: in vivo, Sprague Dawley rats
Text: as §1, §2
Blood samples were allowed to clot at room temperature for 2 hours, and serum was obtained following centrifugation for 10 minutes at 3000 rpm. Serum cholesterol was determined using a Boehringer Mannheim Diagnostics high performance cholesterol assay. Briefly the cholesterol was oxidized to cholest-4-en-3-one and hydrogen peroxide. The hydrogen peroxide was then reacted with phenol and 4-aminophenazone in the presence of peroxidase to produce a p-quinone imine dye, which was read spectrophotemetrically at 500 nm. Cholesterol concentration was then calculated against a standard curve. The entire assay was automated using a Biomek Automated Workstation.

[3] = system: ovariectomized test animals; test: Osteoporosis Test Procedure (OVX rat, 35-day dosing, distal femur metaphysis X-ray image analysis); type: in vivo, Sprague Dawley rats; details: OVX rats, daily for 35 days; for Distal Femur Metaphysis (X-ray Image Analysis-Gray Score): mean ± SEM
Text: as §1
Following the General Preparation Procedure, infra, the rats were treated daily for 35 days (6 rats per treatment group) and sacrificed by carbon dioxide asphyxiation on the 36th day. The 35 day time period was sufficient to allow maximal reduction in bone density, measured as described herein. At the time of sacrifice, the uteri were removed, dissected free of extraneous tissue, and the fluid contents were expelled before determination of wet weight in order to confirm estrogen deficiency associated with complete ovariectomy. […] The uteri were then placed in 10% neutral buffered formalin to allow for subsequent histological analysis.
The right femurs were excised and digitilized x-rays generated and analyzed by an image analysis program (NIH image) at the distal metaphysis. The proximal aspect of the tibiae from these animals were also scanned by quantitative computed tomography.
In accordance with the above procedures, compounds of the present invention and ethynyl estradiol (EE2) in 20% hydroxypropyl b-cyclodextrin were orally administered to test animals. Distal femur metaphysis data presented in Tables 2 and 3 below are the results of formula I compound treatments compared to intact and ovariectomized test animals. Results are reported as the mean ± the standard error of the mean.

[4] = Rattus norvegicus, po, 96 h, daily for 4 days, read-out: Serum Cholesterol (% decrease vs. OVX)
[5] = Table 3, oral, dose 0.1 mg/kg, OVX control 6.2 ± 1.4, Sham 31.1 ± 6.3

Structure (SMILES)	Uterine EPO (V. max) (ovariectomized rats [1]; 0.1 mg/kg)	inhibition in vivo at 0.1 mg/kg (ovariectomized rats [2]; [4])	Uterine EPO (V. max) (ovariectomized rats [1]; 1 mg/kg)	inhibition in vivo at 1 mg/kg (ovariectomized rats [2]; [4])	Uterine EPO (V. max) (ovariectomized rats [1]; 0.01 mg/kg)	inhibition in vivo at 0.01 mg/kg (ovariectomized rats [2]; [4])	also measured
C#C[C@]1(O)CC[C@H]2[C@@H]3CCc4cc(O)ccc4[C@H]3CC[C@@]21C [EE2, 17a-ethynyl estradiol, reference compound]	308.1	94.8%					eosinophil infiltration into the uterus (in words) (ovariectomized rats [1]): substantial, expected increase in eosinophil infiltration; serum cholesterol compared to the ovariectomized control animals (in words) (ovariectomized rats [2]; oral, 4 days, EE2 at 0.1 mg/kg/day): caused a decrease in serum cholesterol; bone loss / femur density after ovariectomy (in words) ([3]; oral): prevented this loss; Distal Femur Metaphysis (X-ray Image Analysis-Gray Score) ([3]; Table 2, oral in 20% hydroxypropyl b-cyclodextrin, dose 0.1 mg/kg, OVX control 8.1 ± 1.8, Sham 27.2 ± 6.0): 11.5 ± 2.9∗; Distal Femur Metaphysis (X-ray Image Analysis-Gray Score) [3, 5]: 17.8 ± 3.5
Oc1ccc(-c2sc3ccccc3c2Oc2ccc(OCCN3CCCCCC3)cc2)cc1 [Example 4, [3-[4-[2-(1-hexamethyleneimino)ethoxy]phenoxy]-2-(4-hydroxypbenyl)]benzo[b]thiophene]	3.9	53.7%	4.8	62.1%			Uterine EPO (V. max) (ovariectomized rats [1]; 10 mg/kg): 3.0; inhibition in vivo at 10 mg/kg (ovariectomized rats [2]; [4]): 65.3%
CCN(CC)CCOc1ccc(Oc2c(-c3ccc(O)cc3)sc3ccccc23)cc1 [Example 5, [3-[4-[2-(1-N,N-diethylamino)ethoxy]phenoxy]-2-(4-bydroxyphenyl)]benzo[b]thiophene]	7.2	67.2%	54.6	67.7%			Uterine EPO (V. max) (ovariectomized rats [1]; 10 mg/kg): 59.4; inhibition in vivo at 10 mg/kg (ovariectomized rats [2]; [4]): 60.2%
c1ccc(-c2sc3ccccc3c2Oc2ccc(OCCN3CCCCC3)cc2)cc1 [Example 7, [3-[4-[2-(1-piperidinyl)ethoxy]phenoxy]-2-(phenyl)]benzo [b]thiophene hydrochloride]	4.8	56.2%	4.5	42.6%			Uterine EPO (V. max) (ovariectomized rats [1]; 5 mg/kg): 4.8; inhibition in vivo at 5 mg/kg (ovariectomized rats [2]; Rattus norvegicus, po, 96 h, daily for 4 days, dose 5.0 mg/kg, read-out: Serum Cholesterol (% decrease vs. OVX)): 29.5%
Oc1ccc(-c2sc3cc(O)ccc3c2Oc2ccc(OCCN3CCCCC3)cc2)cc1 [Example 20, [6-hydroxy-3-[4-[2-(1-piperidinyl)ethoxy]-phenoxy]-2-(4-hydroxyphenyl)]benzo [b]thiophene hydrochloride]	3.0				0.9		Uterine EPO (V. max) (ovariectomized rats [1]; 0.05 mg/kg): 3.0; inhibition in vivo at 0.05 mg/kg (ovariectomized rats [2]; Rattus norvegicus, po, 96 h, daily for 4 days, dose 0.05 mg/kg, read-out: Serum Cholesterol (% decrease vs. OVX)): 35.9%
Oc1ccc(-c2sc3cc(O)ccc3c2Oc2ccc(OCCN3CCOCC3)cc2)cc1 [Example 24, [6-Hydroxy-3-[4-[2-(morpholino)ethoxy]phenoxy]-2-(4-hydroxyphenyl)]benzo[b]thiophene hydrochloride]	0.9	46.4%	29.4	79.3%	3.6	23.7%	Distal Femur Metaphysis (X-ray Image Analysis-Gray Score) [3, 5]: 18.3 ± 2.6∗; Distal Femur Metaphysis (X-ray Image Analysis-Gray Score) ([3]; Table 3, oral, dose 1.0 mg/kg, OVX control 6.2 ± 1.4, Sham 31.1 ± 6.3): 19.6 ± 2.3∗; Distal Femur Metaphysis (X-ray Image Analysis-Gray Score) ([3]; Table 3, oral, dose 3.0 mg/kg, OVX control 6.2 ± 1.4, Sham 31.1 ± 6.3): 17.1 ± 5.5
CCN(CC)CCCOc1ccc(Oc2c(-c3ccc(O)cc3)sc3cc(O)ccc23)cc1 [Example 25, [6-Hydroxy-3-[4-[3-(1-N,N-diethylamino)propoxy]phenoxy]-2-(4-hydroxyphenyl)]benzo [b]thiophene hydrochloride]	3.3	67.6%	36.0	73.9%	3.0	13.1%	
CC(C)N(CCOc1ccc(Oc2c(-c3ccc(O)cc3)sc3cc(O)ccc23)cc1)C(C)C [Example 26, [6-Hydroxy-3-[4-[2-(1-N,N-diisopropylamino)-ethoxy]phenoxy]-2-(4-hydroxyphenyl)]benzo[b]thiophene hydrochloride]	29.1	45.2%	175.1	62.7%	4.8	29%	
Oc1ccc(-c2sc3cc(O)ccc3c2Oc2ccc(OCCCN3CCCCC3)cc2)cc1 [Example 27, [6-Hydroxy-3-[4-[3-(piperidino)propoxy]phenoxy]-2-(4-hydroxyphenyl)]benzo[b]thiophene hydrochloride]	4.8	50.8%	52.5	76.5%	3.3	12.2%	
O=C(Oc1ccc(-c2sc3cc(OC(=O)c4ccccc4)ccc3c2Oc2ccc(OCCN3CCCCC3)cc2)cc1)c1ccccc1 [Example 43, [6-Benzoyloxy-3-[4-[2-(1-piperidinyl)-ethoxy]phenoxy]-2-(4-benzoyloxyphenyl)]benzo[b]thiophene hydrochloride]	4.8	43.8%	6.0	39.4%	3.3	9.2%	
CCS(=O)(=O)Oc1ccc(-c2sc3cc(OS(=O)(=O)CC)ccc3c2Oc2ccc(OCCN3CCCCC3)cc2)cc1 [Example 44, [6-Ethylsulfonyloxy-3-[4-[2-(1-piperidinyl)ethoxy]-phenoxy]-2-(4-ethylsulfonyloxyphenyl)] benzo[b]thiophene hydrochloride]	88.5	43.8%	94.5	67.4%	3.6	12.6%	
